Experimental data taken from PMC8248323 (Clinical Pharmacology in Drug Development, 2021).

Tests used:
Type in all cases: in vitro ADME
OAT1 = OAT1 (Homo sapiens, UniProt Q4U2R8); experiment: In vitro transporter inhibition
MATE1 = MATE1 (Homo sapiens, UniProt Q96FL8); experiment: In vitro transporter inhibition
CYP2B6 = details: in vitro
OCT2 = OCT2 (Homo sapiens, UniProt O15244); experiment: In vitro transporter inhibition
CYP2D6 = CYP2D6 (Homo sapiens, UniProt P10635); experiment: In vitro CYP inhibition
CYP3A = details: in vitro metabolism studies; unpublished data

Chain of OAT1 (Q4U2R8 whole entry): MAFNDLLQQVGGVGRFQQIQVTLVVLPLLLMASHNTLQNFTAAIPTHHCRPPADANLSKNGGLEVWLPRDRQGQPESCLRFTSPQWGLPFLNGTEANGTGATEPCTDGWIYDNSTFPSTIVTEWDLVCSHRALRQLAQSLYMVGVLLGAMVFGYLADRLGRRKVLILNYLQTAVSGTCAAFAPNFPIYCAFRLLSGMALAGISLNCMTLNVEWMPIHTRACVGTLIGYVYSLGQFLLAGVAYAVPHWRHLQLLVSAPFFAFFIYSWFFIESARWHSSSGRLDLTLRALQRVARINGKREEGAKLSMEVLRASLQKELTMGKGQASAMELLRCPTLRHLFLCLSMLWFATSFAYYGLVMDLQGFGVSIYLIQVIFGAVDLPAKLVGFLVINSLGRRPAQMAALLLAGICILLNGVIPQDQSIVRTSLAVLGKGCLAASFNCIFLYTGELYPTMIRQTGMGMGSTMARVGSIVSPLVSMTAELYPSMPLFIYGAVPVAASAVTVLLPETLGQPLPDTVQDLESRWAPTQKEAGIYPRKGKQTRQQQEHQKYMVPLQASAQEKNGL
Chain of CYP2D6 (P10635 whole entry): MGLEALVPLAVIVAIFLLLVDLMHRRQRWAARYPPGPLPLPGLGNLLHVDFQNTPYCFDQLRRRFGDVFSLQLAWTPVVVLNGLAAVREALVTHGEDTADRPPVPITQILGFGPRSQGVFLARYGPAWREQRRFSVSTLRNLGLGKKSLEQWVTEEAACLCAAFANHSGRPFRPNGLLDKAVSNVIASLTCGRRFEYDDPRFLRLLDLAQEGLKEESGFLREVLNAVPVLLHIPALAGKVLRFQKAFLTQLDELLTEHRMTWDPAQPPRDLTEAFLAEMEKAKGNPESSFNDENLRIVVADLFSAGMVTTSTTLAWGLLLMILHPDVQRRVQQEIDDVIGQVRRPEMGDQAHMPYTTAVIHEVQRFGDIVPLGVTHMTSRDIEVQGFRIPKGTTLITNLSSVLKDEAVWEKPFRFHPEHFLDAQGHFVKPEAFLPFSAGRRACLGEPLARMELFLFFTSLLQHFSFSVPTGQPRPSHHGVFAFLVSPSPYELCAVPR
Chain of OCT2 (O15244 whole entry): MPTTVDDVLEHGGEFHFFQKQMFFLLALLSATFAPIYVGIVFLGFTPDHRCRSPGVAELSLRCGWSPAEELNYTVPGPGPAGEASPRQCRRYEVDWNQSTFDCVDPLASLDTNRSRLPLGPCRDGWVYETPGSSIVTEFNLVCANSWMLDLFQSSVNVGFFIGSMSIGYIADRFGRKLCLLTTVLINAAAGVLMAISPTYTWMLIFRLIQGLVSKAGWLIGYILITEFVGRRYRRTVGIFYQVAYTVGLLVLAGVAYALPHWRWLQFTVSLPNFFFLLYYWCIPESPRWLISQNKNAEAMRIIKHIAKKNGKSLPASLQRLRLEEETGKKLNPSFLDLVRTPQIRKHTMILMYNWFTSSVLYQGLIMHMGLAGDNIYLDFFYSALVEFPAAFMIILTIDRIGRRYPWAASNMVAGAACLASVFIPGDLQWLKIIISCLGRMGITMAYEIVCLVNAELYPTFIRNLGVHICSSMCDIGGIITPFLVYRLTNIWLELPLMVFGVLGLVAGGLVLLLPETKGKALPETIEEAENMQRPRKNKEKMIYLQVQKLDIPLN
Chain of MATE1 (Q96FL8 whole entry): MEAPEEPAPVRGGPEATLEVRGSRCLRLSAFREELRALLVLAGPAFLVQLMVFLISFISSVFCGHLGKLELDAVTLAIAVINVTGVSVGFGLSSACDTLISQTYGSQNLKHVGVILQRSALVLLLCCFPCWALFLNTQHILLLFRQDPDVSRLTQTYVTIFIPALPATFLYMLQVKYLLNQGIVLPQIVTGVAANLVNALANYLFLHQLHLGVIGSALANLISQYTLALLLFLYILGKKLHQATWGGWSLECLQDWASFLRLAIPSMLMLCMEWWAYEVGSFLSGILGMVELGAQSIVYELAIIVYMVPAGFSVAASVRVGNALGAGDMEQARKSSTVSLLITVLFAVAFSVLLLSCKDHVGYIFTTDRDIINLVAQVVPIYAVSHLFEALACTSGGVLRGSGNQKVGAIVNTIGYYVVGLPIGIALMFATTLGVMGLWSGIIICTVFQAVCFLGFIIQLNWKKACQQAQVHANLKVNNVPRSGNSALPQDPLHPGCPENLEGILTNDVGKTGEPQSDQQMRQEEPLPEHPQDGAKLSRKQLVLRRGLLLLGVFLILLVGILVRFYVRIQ

Cc1ncc(OC[C@@]2(c3cccc(F)c3)C[C@H]2C(=O)Nc2ccc(F)cn2)c(C)n1 [Lemborexant, (1R,2S)‐2‐{[(2,4‐dimethylpyrimidin‐5‐yl)oxy]methyl}‐2‐(3‐fluorophenyl)‐N‐(5‐fluoropyridin‐2‐yl)cyclopropanecarboxamide]
inhibition of OAT1 (OAT1): do not inhibit | inhibition of MATE1 (MATE1): do not inhibit | induction of CYP2B6 (CYP2B6): have the potential to induce | inhibition of OCT2 (OCT2): do not inhibit | inhibition of CYP2D6 (CYP2D6): do not inhibit | metabolic pathway (CYP3A): predominantly metabolized by the cytochrome P450 3A (CYP3A) pathway
